Test results taken from patent publication EP1147134B1, “NOVEL POTASSIUM CHANNELS AND GENES ENCODING THESE POTASSIUM CHANNELS” (NEUROSEARCH A/S, priority 1999, dated 2000).

Key:
KCNQ2/KCNQ3 channels = conditions: concentration of 200 µM; cited from earlier work
KCNQ4 = target: T1, KCNQ4 (Homo sapiens, UniProt P56696); test: Two-electrode voltage clamp of KCNQ4 currents in Xenopus oocytes; assay type: cell-based
T1 construct: A complete cDNA was assembled and cloned into the oocyte expression vector PTLN; expressed in transfected cells; host or cells: Xenopus oocytes injected with capped cRNA from the PTLN vector
T1 sequence (P56696 1-695): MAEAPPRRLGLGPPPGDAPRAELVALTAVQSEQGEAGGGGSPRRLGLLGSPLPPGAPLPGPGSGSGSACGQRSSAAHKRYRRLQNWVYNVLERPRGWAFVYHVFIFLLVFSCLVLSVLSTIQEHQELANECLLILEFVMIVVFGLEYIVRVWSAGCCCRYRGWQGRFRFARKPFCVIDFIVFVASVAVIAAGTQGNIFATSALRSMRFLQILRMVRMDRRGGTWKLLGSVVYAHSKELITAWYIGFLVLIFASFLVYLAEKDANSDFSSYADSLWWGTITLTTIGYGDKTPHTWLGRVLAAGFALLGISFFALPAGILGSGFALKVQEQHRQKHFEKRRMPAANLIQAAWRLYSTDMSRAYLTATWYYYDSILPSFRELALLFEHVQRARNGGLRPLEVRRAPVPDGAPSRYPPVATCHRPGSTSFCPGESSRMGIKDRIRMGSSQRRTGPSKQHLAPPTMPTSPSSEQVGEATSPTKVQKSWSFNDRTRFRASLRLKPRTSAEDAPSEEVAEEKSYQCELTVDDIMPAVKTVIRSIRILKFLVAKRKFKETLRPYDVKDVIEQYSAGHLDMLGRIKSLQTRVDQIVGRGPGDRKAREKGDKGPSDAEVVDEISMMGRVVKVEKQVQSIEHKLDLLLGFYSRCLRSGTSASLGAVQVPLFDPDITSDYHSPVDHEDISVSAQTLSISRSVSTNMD
Procedure: (§1) KCNQ4 was expressed in Xenopus oocytes and its activity was investigated by two-electrode voltage clamping.
(§2) After linearization of the KCNQ4-containing PTLN vector with Hpal, capped cRNA was transcribed in vitro using the mMessage mMachine cRNA synthesis kit (Ambion). Usually 5 - 15 ng of cRNA were injected into Xenopus oocytes previously isolated by manual defolliculation and short collagenase treatment. In co-expression experiments cRNAs were injected at a 1:1 ratio. Oocytes were kept at 17°C in modified Barth's solution (90 mM NaCl, 1 mM KCl, 0.41 mM CaCl2, 0.33 mM Ca(NO3)2, 0.82 mM MgSO4, 10 mM HEPES, 100 U penicillin-100 µg streptomycin/ml, pH 7.6).
(§3) Standard two-electrode voltage-clamp measurements were performed at room temperature 2-4 days after injection using a Turbotec 05 amplifier (npi instruments, Tamm, Germany) and pClamp 5.5 software (Axon Instruments). Currents were usually recorded in ND98 solution (see Table 2). Solutions for Na^+ / K^+ replacement experiments were prepared from an appropriate mixture of solution KD100 (100 mM KCl) and ND100 (100 mM NaCl) to yield the stated concentrations of Na^+ and K^+. Linopirdine (RBI, Natick, MA) was prepared as a 100 mM stock solution in DMSO and added to a final concentration of 200 µM to ND98.

KCNQ3/KCNQ4 = target: T2, KCNQ3/KCNQ4 (Homo sapiens, UniProt O43525+P56696); test: Two-electrode voltage clamp of Xenopus oocytes co-injected with KCNQ3 and KCNQ4 cRNA; assay type: cell-based; conditions: 200 µM Linopirdine in ND98, currents measured at +40 mV, cRNAs 1:1
T2 construct: A complete cDNA was assembled and cloned into the oocyte expression vector PTLN; expressed in transfected cells; host or cells: Xenopus oocytes co-injected with KCNQ3 and KCNQ4 cRNA
T2 sequence (P56696 1-695): T1 sequence (P56696 1-695)
T2 sequence (O43525 1-872): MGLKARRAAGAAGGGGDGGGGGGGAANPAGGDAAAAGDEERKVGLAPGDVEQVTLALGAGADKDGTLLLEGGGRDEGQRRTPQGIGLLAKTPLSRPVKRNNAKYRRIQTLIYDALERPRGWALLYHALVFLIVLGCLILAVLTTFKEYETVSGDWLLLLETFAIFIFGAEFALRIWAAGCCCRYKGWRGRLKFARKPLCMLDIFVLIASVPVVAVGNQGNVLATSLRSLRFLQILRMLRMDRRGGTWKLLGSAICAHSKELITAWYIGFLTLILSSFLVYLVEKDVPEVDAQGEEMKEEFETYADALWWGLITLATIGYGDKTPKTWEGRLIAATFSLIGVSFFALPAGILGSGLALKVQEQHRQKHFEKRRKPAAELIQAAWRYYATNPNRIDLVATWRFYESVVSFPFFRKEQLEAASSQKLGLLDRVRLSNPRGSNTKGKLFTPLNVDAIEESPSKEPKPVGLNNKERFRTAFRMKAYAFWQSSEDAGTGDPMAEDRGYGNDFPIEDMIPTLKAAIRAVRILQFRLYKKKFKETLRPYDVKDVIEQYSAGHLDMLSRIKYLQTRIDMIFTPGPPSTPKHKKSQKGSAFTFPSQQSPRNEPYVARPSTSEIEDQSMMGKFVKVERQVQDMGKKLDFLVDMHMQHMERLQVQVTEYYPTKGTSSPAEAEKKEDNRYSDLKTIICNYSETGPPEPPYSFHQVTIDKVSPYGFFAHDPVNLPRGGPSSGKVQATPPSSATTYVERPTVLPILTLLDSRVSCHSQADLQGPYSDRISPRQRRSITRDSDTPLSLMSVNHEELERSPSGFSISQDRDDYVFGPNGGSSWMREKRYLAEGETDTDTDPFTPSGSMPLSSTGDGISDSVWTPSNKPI
Procedure: as §1, §2, §3

In the case of `O=C1N(c2ccccc2)c2ccccc2C1(Cc1ccncc1)Cc1ccncc1` [Linopirdine, 1,3-dihydro-1-phenyl-3,3-bis(4-pyridylmethyl)-2H-indol-2-one], the “inhibition of KCNQ2/KCNQ3 channels” value (KCNQ2/KCNQ3 channels) is listed as “nearly completely inhibits”, the inhibition at 200 µM (KCNQ4; 200 µM Linopirdine in ND98, currents measured at +40 mV, Xenopus oocytes) is listed as roughly 30% and the “time until steady-state inhibition was reached, KCNQ4 currents” value (KCNQ4; upon addition of 200 µM Linopirdine) is listed as ~ 1 min. For the same molecule, the “inhibition with KCNQ3/KCNQ4 co-expression” value (KCNQ3/KCNQ4) was “≈ 75%”.
